Laboratory results reported in paper PMC5716993, “The interdomain flexible linker of the polypeptide GalNAc transferases dictates their long-range glycosylation preferences” (Nature Communications, 2017).

Target: T1, GalNAc-T4 (Homo sapiens, UniProt Q8N4A0)
T1 construct: amino acid residues 36–578 of the human GalNAc-T4; histidine tag (C); made in house; host or cells: Pichia pastoris SMD1168 (pPICZαA, secreted)
Test: STD-NMR binding / epitope mapping
Settings: normalized to the highest STD response; 298 K, pH 7.4, UDP, MnCl2; in words
Description: All NMR experiments were recorded on a Bruker Avance 600 MHz spectrometer equipped with a triple channel cryoprobe head. The^1H NMR resonances of the peptides 1–3 were completely assigned through standard 2D-TOCSY (30 and 80 ms mixing time) and 2D-NOESY experiments (400 ms mixing time). Solution conditions used for the NMR characterization studies were 1–3 mM (glyco)peptide, 25 mM perdeuterated tris-d11 in 90:10 H2O/D2O, 7.5 mM NaCl, and 1 mM DTT, uncorrected pH 7.4. The assignments were accomplished either at 278 or 298 K. The resonance of 2,2,3,3-tetradeutero-3-trimethylsilylpropionic acid (TSP) was used as a chemical shift reference in the^1H NMR experiments (δ TSP = 0 ppm). Peak lists for the 2D-TOCSY and 2D-NOESY spectra were generated by interactive peak picking using the computer aided resonance assignment (CARA) software.
Samples for STD experiments were prepared in perdeuterated 25 mM TRIS-d11 in deuterated water, 7.5 mM NaCl, and 1 mM DTT, uncorrected pH 7.4. STD-NMR experiments were performed at 298 K in the presence of 75 μM UDP, 75 μM MnCl2 with ~880 μM peptide (or GalNAc-O-Me) and 13.5 μM GalNAc-T4 giving a molar ratio of 65:1 peptide:GalNAc-T4.
The STD-NMR spectra were acquired with 1920 transients in a matrix with 64 k data points in t2 in a spectral window of 12335.53 Hz centered at 2819.65 Hz. An excitation sculpting module with gradients was employed to suppress the water proton signals. Selective saturation of the protein resonances (on resonance spectrum) was performed by irradiating at −1 ppm using a series of Eburp2.1000-shaped 90° pulses (50 ms, 1 ms delay between pulses) for a total saturation time of 2.0 s. For the reference spectrum (off resonance), the samples were irradiated at 100 ppm. Proper control experiments were performed with the ligands in the presence and absence of the protein in order to optimize the frequency for protein saturation (−1 ppm) and to ensure that the ligand signals were not affected. […] This nonspecific saturation was taken into account, by subtraction, when quantifying the STD-NMR data in the presence of the transferase. As well, a blank STD experiment with only the protein was also recorded. The substraction of this protein STD spectrum allowed eliminating the signal background of the protein. In all cases, to accomplish the STD-NMR-derived epitope mapping of each ligand, the STD-NMR total intensities were normalized with respect to the highest STD-NMR response. For Fig. 2b and Supplementary Fig. 1, the STD response of each amino acid corresponds to the average of STD percentages of all amino acid proton resonances that were measured with sufficient accuracy. The signal of the anomeric proton of as well as, the Hα protons of the Ala amino acids of glycopeptides could not be analyzed in the STD-NMR spectra due to their close proximity to the HDO resonance. Proton resonances, from Gly and Pro, appear in the same chemical shift region of the spectrum and were not discriminated.

T1 sequence (Q8N4A0 36-578): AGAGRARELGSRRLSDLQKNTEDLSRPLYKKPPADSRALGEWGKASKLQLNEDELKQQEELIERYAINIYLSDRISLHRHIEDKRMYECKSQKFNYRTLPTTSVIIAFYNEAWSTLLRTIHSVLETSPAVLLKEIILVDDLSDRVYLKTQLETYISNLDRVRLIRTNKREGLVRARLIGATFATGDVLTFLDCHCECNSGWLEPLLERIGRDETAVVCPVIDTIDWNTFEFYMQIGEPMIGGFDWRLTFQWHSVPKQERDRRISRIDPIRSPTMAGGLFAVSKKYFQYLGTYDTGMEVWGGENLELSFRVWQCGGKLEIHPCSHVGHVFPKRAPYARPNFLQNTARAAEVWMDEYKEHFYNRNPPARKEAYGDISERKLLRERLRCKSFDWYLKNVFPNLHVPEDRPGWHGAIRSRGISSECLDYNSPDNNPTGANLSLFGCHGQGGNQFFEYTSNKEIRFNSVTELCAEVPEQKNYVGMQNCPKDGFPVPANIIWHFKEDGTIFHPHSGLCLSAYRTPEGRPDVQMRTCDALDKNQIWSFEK

## CO[C@H]1O[C@H](CO)[C@H](O)[C@H](O)[C@H]1NC(C)=O [α-methyl-GalNAc, reference compound]
  STD-NMR-derived epitope mapping of GalNAc moiety: the highest STD response corresponded to the H2 proton of the GalNAc moiety followed by a modest STD of protons H4, H3, and N-acetyl group
